Experimental data as given in patent US20180193361A1, “GUT ANTI-INFLAMMATORY AGENTS FOR REGULATION OF HIGH BLOOD GLUCOSE LEVELS” (UNIVERSITY HEALTH NETWORK, priority 2015, published 2018).

Key:
NCD-fed C57BL/6 mice = test: Metabolic studies, NCD or NCD 5-ASA; assay type: in vivo; details: NCD vs NCD 5-ASA 1500 mg/kg/day, 12 weeks
Experimental: Mice. Mice were fed either NCD (15 kcal % fat) or HFD (Research Diets, 60 kcal % fat, irradiated) starting at 6 weeks of age. […] Mice were maintained in a pathogen-free, temperature-controlled environment on a 12-hour light and dark cycle. All mice used in comparative studies were male, age-matched, and litter mates where possible. […] We measured body weights, GTTs, ITTs, serum insulin, and fat cell diameter as previously described (Winer et al., 2009a). All GTTs were performed with a 1.5 g/kg glucose i.p. injection unless indicated otherwise.

[1] = system: Lck-Cre PPARγfl/fl T cells; test: In vitro IFNγ secretion, T cells lacking PPARγ (Lck-Cre PPARγfl/fl); assay type: cell-based, mice; details: HFD-fed Lck-Cre+ PPARγfl/fl vs WT, 5-ASA in vitro 0.01-1 mM
Experimental: Mice. Mice were fed either NCD (15 kcal % fat) or HFD (Research Diets, 60 kcal % fat, irradiated) starting at 6 weeks of age. All studies were performed under the approval of Animal User Protocols by the Animal Care Committee at the University Health Network. Mice were maintained in a pathogen-free, temperature-controlled environment on a 12-hour light and dark cycle. All mice used in comparative studies were male, age-matched, and litter mates where possible. […] We confirmed T cell-specific floxing of the PPARγ gene in Lck-Cre+ PPARγfl/fl mice by qPCR with a minimum of at least 90% reduction in PPARγ expression. […] To measure the effect of IFNγ on tight-junction gene expression, we treated MODE-K cells with recombinant mouse IFNγ (Biolegend). We purified bulk dendritic cells and T cells from murine small bowels and spleens using a negative selection DC or T cell isolation kit (Stem Cell Technologies). We plated T cells at 5×10^5 cells/well with plate-bound anti-CD3/CD28 (1 μg/ml, Biolegend). […] We collected supernatants for cytokine measurements after 72 hour incubation. […] We measured serum cytokines by Luminex Multiplex cytokine assay (Millipore, run by the UHN Microarray Center), and quantified IL-10 and IFN-γ in supernatants of anti-CD3/CD28-stimulated splenocytes or bowel immune cells (Winer et al., 2009b) by ELISA (Biolegend).

[2] = system: colon and small bowel lamina propria T cells; test: Flow cytometry of colon and small bowel lamina propria T cells, HFD or HFD 5-ASA; assay type: in vivo, mice; details: HFD vs HFD 5-ASA 1500 mg/kg/day, 16 weeks
From the text: Isolation of bowel immune cells. For isolation of small intestine lamina propria immune cells, we used the protocol described by Fritz et al (Fritz et al., 2012), and processed approximately 10 cm from the distal end of the small intestine (jejunum and ileum). For the isolation of colonic lamina propria immune cells, we used the protocol described by Geddes et al (Geddes et al., 2011). Following lamina propria isolations, we passed immune cells through 70 μm strainers, and used them for flow cytometry.
We stained single cell suspensions for 30 min on ice with commercial antibodies. Flow cytometry antibodies including CD45.2 (104), CD3 (145-2C11), CD4 (GK1.5), CD8 (53-6.7), CD25 (PC61), γδTcR (GL3), Foxp3 (150D), IL-17 (TC11-18H10.1), IFNγ XMG1.2), α4β7 (DATK32), CCR9 (CW-1.2), CD11b (M1/70), F4/80 (BM8), CD11c (N418), CD206 (C068C2), Gr-1 (RB6-8C5), IL-7Rα (A7R34), B220 (RA3-6B2), Thy1.2 (30-H12), NKp46 (29A1.4), and Sca-1 (D7) were purchased from Biolegend. Intracellular staining was performed using a Foxp3 staining buffer kit (eBioscience). We acquired data on a Fortessa flow cytometer (BD Biosciences) and analyzed it with FlowJo software (Tree Star). We gated ILCs as described (Kirchberger et al., 2013).

small bowel T cells = test: In vitro IFNγ secretion, anti-CD3/CD28-activated small bowel T cells; assay type: cell-based; details: T cells from HFD-fed WT mice, 72 hour; 5-ASA 0.1 mM; rosiglitazone 0.1, 1 and 10 μM
Experimental: To measure the effect of IFNγ on tight-junction gene expression, we treated MODE-K cells with recombinant mouse IFNγ (Biolegend). We purified bulk dendritic cells and T cells from murine small bowels and spleens using a negative selection DC or T cell isolation kit (Stem Cell Technologies). We plated T cells at 5×10^5 cells/well with plate-bound anti-CD3/CD28 (1 μg/ml, Biolegend). […] We collected supernatants for cytokine measurements after 72 hour incubation. […] After 24 hours, we washed the cells with PBS and co-cultured them (1×10^4 cells/well) with OVA323-339 peptide and OT-II splenic or small bowel T cells (5×10^4 cells/well) for 48 hours. Supernatants were collected at 48 hours for cytokine measurement. We measured serum cytokines by Luminex Multiplex cytokine assay (Millipore, run by the UHN Microarray Center), and quantified IL-10 and IFN-γ in supernatants of anti-CD3/CD28-stimulated splenocytes or bowel immune cells (Winer et al., 2009b) by ELISA (Biolegend).

HFD-fed C57BL/6 mice = test: Food intake and metabolic cage studies, HFD or HFD 5-ASA; assay type: in vivo; details: HFD vs HFD 5-ASA, 14 weeks
Experimental: Mice. Mice were fed either NCD (15 kcal % fat) or HFD (Research Diets, 60 kcal % fat, irradiated) starting at 6 weeks of age. All studies were performed under the approval of Animal User Protocols by the Animal Care Committee at the University Health Network. Mice were maintained in a pathogen-free, temperature-controlled environment on a 12-hour light and dark cycle. All mice used in comparative studies were male, age-matched, and litter mates where possible. […] We confirmed T cell-specific floxing of the PPARγ gene in Lck-Cre+ PPARγfl/fl mice by qPCR with a minimum of at least 90% reduction in PPARγ expression. […] We placed mice in automated metabolic cages (Oxymax Systems, Columbus Instruments) for 48 hours with airflow held constant at 0.5 L/min. (Revelo et al., 2014). […] We measured metabolic activity using indirect calorimetry, recording maximal O2 consumption (VO2), CO2 production (VCO2), and heat production normalized to body weight. Respiratory exchange ratio (RER) was calculated as […]. The data shown are calculated for light and dark measurements as an average over 24 hours by combining light and dark measurements. Ambulatory activity was measured by the breaking of infrared laser beams in the XY plane.

## Nc1ccc(O)c(C(=O)O)c1 [5-ASA, 5-aminosalicylic acid]
NCD-fed C57BL/6 mice
  IR: little or no difference
  body weight: little or no difference
  fasting glucose: little or no difference
  glucose tolerance: little or no difference
[1]
  suppressive effects on IFNγ with loss of PPARγ in T cells: abrogated
[2]; colon and small bowel
  IFNγ-secreting CD8+ T cells: reduction
  IL-17-secreting γδ T cells: reduction
  Th1 cells: reduction
[2]; small bowel
  Tregs: significant increase
Small bowel T cells
  IFNγ production: significantly reduced
HFD-fed C57BL/6 mice
  carbon dioxide output: no difference
  food intake: no difference
  oxygen consumption: no difference
